Test results: patent US5663417A, “Carbocyclic sulfonamides” (Ono Pharmaceutical Co., Ltd., priority 1993, dated 1997)

Target: prostaglandin E2 receptor
Assay: inhibition of [^3 H]-PGE2 receptor binding in rat uterus membrane fraction
Conditions: Table I; 5 nM [^3 H]-PGE2, rat uterus crude membrane fraction, pH 6.0, 1 hour at room temperature; read-out: IC50, inhibitory effects of PGE2 receptor binding in rat
Description: (i) The measurement of the inhibition of [^3 H]-PGE2 receptor binding
The standard assay mixture contained 5 nM [^3 H]-PGE2 (50 μl), test compounds (50 μl) and crude membrane fraction obtained from rat uterus (1.2 mg protein/ml, 100 μl) in a final volume of 200 μl (10 mM potassium phosphate pH 6.0, 0.1M NaCl (buffer A)). After incubation for 1 hour at room temperature, the reaction was stopped by the addition of 3 ml of ice-cold buffer A, after which the mixture was rapidly filtered through a Whatman GF/B glass filter. The radioactivity associated with the filter was measured in ACS II (Amarsham) by liquid scintillation counting. Percent inhibition of specific [^3 H]-PGE2 binding or IC50 value, the concentration required to compete with ^3 H-PGE2 receptor binding by 50% were calculated.

| SMILES | IC50 |
| --- | --- |
| O=C(O)CCC/C=C\C1CCCC1CNS(=O)(=O)c1ccc(Br)cc1 (centres unmarked) | 1.8 µM |
| Cc1ccc(S(=O)(=O)NCC2CCCC2/C=C\CCCC(=O)O)cc1 (centres unmarked) | 8 µM |
| Cc1ccc(S(=O)(=O)NC2C3CCC(C3)C2C/C=C\CCCC(=O)O)cc1 (racemic) [5 (b), a mixture of 7-[(1R,2S,3S, 4S)-3-tosylaminobicyclo[2.2.1]heptan-2-yl]-5Z-heptenoic acid and an isomer of (1S, 2S,3S,4R)] | 3.4 µM |
| Cc1ccc(S(=O)(=O)N[C@H]2C3CCC(CC3)[C@@H]2C/C=C\CCCC(=O)O)cc1 (relative stereo) [5 (a), 7-[(2S*,3S*)-3-tosylaminobicyclo[2.2.2]octan-2-yl]-5Z-heptenoic acid] | 3.6 µM |
| Cc1ccc(S(=O)(=O)N[C@H]2[C@H]3CC[C@H](C3)[C@@H]2C/C=C\CCCC(=O)O)cc1 (relative stereo) [5 (c), 7-[(1R*,2S*,3S*,4S*)-3-tosylaminobicyclo[2.2.1]heptan-2-yl]-5Z-heptenoic acid] | 5.7 µM |
| Cc1ccc(S(=O)(=O)N[C@H]2CCC[C@@H]2C/C=C\CCCC(=O)O)cc1 (relative stereo) [5 (g), 7-[(1R*,2S*)-2-tosylaminocyclopentyl-5Z-heptenoic acid] | 3.5 µM |
| O=C(O)CCC/C=C\C[C@H]1CCC[C@@H]1NS(=O)(=O)c1ccc(Br)cc1 (relative stereo) [5 (h), 7-[(1R*,2S*)-2-(4-bromophenylsulfonylamino)cyclopentyl]-5Z-heptenoic acid] | 0.2 µM |
| O=C(O)CCC/C=C\[C@@H]1CCC[C@@H](NS(=O)(=O)c2ccc(Br)cc2)C1 (relative stereo) [U.S. Pat. No. 5168101 1 (l)] | 2.4 µM |
| O=C(O)CCC/C=C\[C@@H]1CCC[C@H](NS(=O)(=O)c2ccc(Br)cc2)C1 (relative stereo) [U.S. Pat. No. 5168101 1 (m)] | 0.5 µM |
| CC1(C)[C@H]2C[C@H](NS(=O)(=O)c3ccccc3)[C@@H](C/C=C\CCCC(=O)O)[C@@H]1C2 [3 (a), 7-[(1S,2S,3S,5R)-3-phenylsulfonylamino-6,6-dimethylbicyclo[3.1.1]heptan-2-yl]-5Z-heptenoic] | 7.6 µM |
| CCc1ccc(S(=O)(=O)N[C@H]2C[C@H]3C[C@@H]([C@@H]2C/C=C\CCCC(=O)O)C3(C)C)cc1 [3 (b), 7-[(1S,2S,3S,5R)-3-(4-ethylphenyl)sulfonylamino-6,6-dimethylbicyclo[3.1.1]heptan-2-yl]-5Z-heptenoic] | 0.57 µM |
| CC(C)(C)c1ccc(S(=O)(=O)N[C@H]2C[C@H]3C[C@@H]([C@@H]2C/C=C\CCCC(=O)O)C3(C)C)cc1 [3 (c), 7-[(1S,2S,3S,5R)-3-(4-tert-butylphenyl)sulfonylamino-6,6-dimethylbicyclo[3.1.1]heptan-2-yl]-5Z-heptenoic acid] | 6.3 µM |
| COc1ccc(S(=O)(=O)N[C@H]2C[C@H]3C[C@@H]([C@@H]2C/C=C\CCCC(=O)O)C3(C)C)cc1 [3 (d), 7-[(1S,2S,3S,5R)-3-(4-methoxyphenyl)sulfonylamino-6,6-dimethylbicyclo[3.1.1]heptan-2-yl]-5Z-heptenoic acid] | 0.82 µM |
| CC1(C)[C@H]2C[C@H](NS(=O)(=O)c3ccc(F)cc3)[C@@H](C/C=C\CCCC(=O)O)[C@@H]1C2 [3 (e), 7-[(1S,2S,3S,5R)-3-(4-fluorophenyl)sulfonylamino-6,6-imethylbicyclo[3.1.1]heptan-2-yl]-5Z-heptenoic] | 2.6 µM |
| CC1(C)[C@H]2C[C@H](NS(=O)(=O)c3ccc(Cl)cc3)[C@@H](C/C=C\CCCC(=O)O)[C@@H]1C2 [3 (f), 7-[(1S,2S,3S,5R)-3-(4-chlorophenyl)sulfonylamino-6,6-imethylbicyclo[3.1.1]heptan-2-yl]-5Z-heptenoic] | 0.75 µM |
| CC1(C)[C@H]2C[C@H](NS(=O)(=O)c3ccc(I)cc3)[C@@H](C/C=C\CCCC(=O)O)[C@@H]1C2 [3 (g), 7-[(1S,2S,3S,5R)-3-(4-iodophenyl)sulfonylamino-6,6-dimethylbicyclo[3.1.1]heptan-2-yl]-5Z-heptenoic] | 0.054 µM |
| CC1(C)[C@H]2C[C@H](NS(=O)(=O)c3ccc([N+](=O)[O-])cc3)[C@@H](C/C=C\CCCC(=O)O)[C@@H]1C2 [3 (h), 7-[(1S,2S,3S,5R)-3-(4-nitrophenyl)sulfonylamino-6,6-dimethylbicyclo[3.1.1]heptan-2-yl]-5Z-heptenoic] | 0.21 µM |
| CC1(C)[C@H]2C[C@H](NS(=O)(=O)c3ccc4ccccc4c3)[C@@H](C/C=C\CCCC(=O)O)[C@@H]1C2 [3 (i), 7-[(1S,2S,3S,5R)-3-(2-naphtyl)sulfonylamino-6,6-dimethylbicyclo[3.1.1]heptan-2-yl]-5Z-heptenoic] | 0.09 µM |
| CCCCS(=O)(=O)N[C@H]1C[C@H]2C[C@@H]([C@@H]1C/C=C\CCCC(=O)O)C2(C)C [3 (j), 7-[(1S,2S,3S,5R)-3-butylsulfonylamino-6,6-dimethylbicyclo[3.1.1]heptan-2-yl]-5Z-heptenoic acid] | 5 µM |
| CCCCCCS(=O)(=O)N[C@H]1C[C@H]2C[C@@H]([C@@H]1C/C=C\CCCC(=O)O)C2(C)C [3 (k), 7-[(1S,2S,3S,5R)-3-hexylsulfonylamino-6,6-dimethylbicyclo[3.1.1]heptan-2-yl]-5Z-heptenoic acid] | 0.025 µM |
| CCCCCCCCS(=O)(=O)N[C@H]1C[C@H]2C[C@@H]([C@@H]1C/C=C\CCCC(=O)O)C2(C)C [3 (l), 7-[(1S,2S,3S,5R)-3-octylsulfonylamino-6,6-dimethylbicyclo[3.1.1]heptan-2-yl]-5Z-heptenoic acid] | 0.36 µM |
| CC1(C)[C@H]2C[C@H](NS(=O)(=O)CCc3ccccc3)[C@@H](C/C=C\CCCC(=O)O)[C@@H]1C2 [3 (m), 7-[(1S,2S,3S,5R)-3-(2-phenylethyl)sulfonylamino-6,6-dimethylbicyclo[3.1.1]heptan-2-yl]-5Z-heptenoic acid] | 0.0054 µM |
| CC1(C)[C@H]2C[C@H](NS(=O)(=O)CCC3CCCCC3)[C@@H](C/C=C\CCCC(=O)O)[C@@H]1C2 [3 (n), 7-[(1S,2S,3S,5R)-3-(2-cyclohexylethyl)sulfonylamino-6,6-dimethylbicyclo[3.1.1]heptan-2-yl]-5Z-heptenoic acid] | 0.12 µM |
| Cc1ccc(S(=O)(=O)N[C@H]2C3CCC(CC3)[C@@H]2C/C=C\CCCC(=O)O)cc1 [5 (d), 7-[(2S,3S)-3-tosylaminobicyclo[2.2.2]octan-2-yl]-5Z-heptenoic acid] | 2.1 µM |
| O=C(O)CCC/C=C\CC1CCCCC1NS(=O)(=O)c1ccc(Br)cc1 (centres unmarked) [5 (e), 7-[2-(4-bromophenylsulfonylamino)cyclohexyl]-5Z-heptenoic acid] | 0.06 µM |
| O=C(O)CCC/C=C\CC1CCCCC1NS(=O)(=O)c1ccc(Br)cc1 (centres unmarked) [5 (f), 7-[2-(4-bromophenylsulfonylamino)cyclohexyl]-5Z-heptenoic acid] | 5 µM |
| O=C(O)CCCC=CC1C2CCC(C2)C1CNS(=O)(=O)c1ccc(Br)cc1 [5 (i), 6-[(1S,2S,3S,4R)-3-(4-bromophenylsulfonylaminomethyl)bicyclo[2.2.1]heptan-2-yl]-5Z-hexenoic acid] | 6.5 µM |

Same assay, conditions: Table II; 5 nM [^3 H]-PGE2, rat uterus crude membrane fraction, pH 6.0, 1 hour at room temperature; read-out: IC50, inhibitory effects of PGE2 receptor binding in rat

| SMILES | IC50 |
| --- | --- |
| O=C(O)CCC/C=C\C[C@H]1CCCC[C@@H]1NS(=O)(=O)/C=C/c1ccccc1 (relative stereo) [6 (19), 7-[(1R*, 2S*)-2-(2-phenylvinylsulfonylamino)cyclohexyl]-5Z-heptenoic] | 0.23 µM |
| O=C(O)CCC/C=C\[C@@H]1CCC[C@@H](NS(=O)(=O)/C=C/c2ccccc2)C1 (relative stereo) [6 (21), 6-[(1R*, 3R*)-3-(2-phenylvinylsulfonylamino)cyclohexyl]-5Z-hexenoic] | 0.6 µM |
